In patent US11492348B2, “Tri-substituted aryl and heteroaryl derivatives as modulators of PI3-kinase and autophagy pathways” (Neuropore Therapies, Inc., priority 2018, dated 2022):

What was measured:
[1] = tested on: (Ser-473) pAKT in B103 (Rat Neuroblastoma) cells; test: pAKT protocol: loss of (Ser-473) pAKT by AlphaScreen in insulin-stimulated B103 cells; type: cell-based; conditions: (Ser-473) pAKT/total AKT IC50, 2-hour pretreatment, 2.5 μg/mL insulin 20 minutes
Protocol: Inhibition of the PI3K-AKT-mTOR pathway was measured by quantifying the loss of (Ser-473) pAKT using AlphaScreen (Perkin Elmer). B103 (Rat Neuroblastoma) cells were seeded in serum containing medium (High Glucose DMEM (-Phenol Red)+10% FBS+2× Glutamax+1 mM Sodium Pyruvate+10 mM HEPES+1× Non-Essential Amino Acids+1× Pen/Strep) on a 96-well tissue culture treated plate and grown for 20 hours. Cells were then serum starved in serum free medium (High Glucose DMEM (-Phenol Red)+1× Glutamax+1 mM Sodium Pyruvate+1× Pen/Strep) for 6 hours prior to a 2-hour pretreatment with inhibitors of the pathway, including reference inhibitor LY294002. These inhibitors were prepared at a 200× final concentration as a 6-point, 1:3 serial dilution in DMSO series, with DMSO as the 7th point. The inhibitors were then diluted in experimental medium (High Glucose DMEM (-Phenol Red)+1× Glutamax+1 mM Sodium Pyruvate+1× Pen/Strep+25 mM HEPES+0.1% BSA) and combined with the cells at 1× final concentration in 0.5% DMSO. […] Cells were promptly lysed using Perkin Elmer proprietary lysis buffer and the (Ser-473) pAKT and total AKT contained in the lysate was measured by AlphaScreen. In AlphaScreen, donor beads were coated with streptavidin to capture one of the antibodies, which is biotinylated. Acceptor beads were coated with Protein A to immobilize the other antibody. In the presence of target protein, the two antibodies bring the donor and acceptor beads close together, generating signal. The amount of light emission is directly proportional to the amount of target protein present in the sample. For each inhibitor tested: the ratio of measured (Ser-473) pAKT/totalAKT was plotted in GraphPad Prism as a 7-point, non-linear regression, 4-parameter curve with bottom constrained to reference control bottom and unconstrained top anchored to DMSO.

PI3Kα = PI3Kα (Homo sapiens (Human), UniProt P42336); test: Inhibition of PI3Kα (ADP-Glo kinase activity assay, ATP to ADP conversion); type: biochemical; conditions: 25 μM PIP2:PS, 60 μM ATP, 30 min reaction, luminescence
Protocol: Quantification of ATP to ADP conversion as a measure of PI3Kα activity. Active PI3Kα (Life Technologies), in the presence or absence of PI3Kα inhibitor, was reacted with PIP2:PS (Life Technologies), a substrate specifically optimized for use with Class I PI3 kinases, and ultrapure ATP (Promega). The conversion of ATP to ADP by PI3Kα was measured as luminescence signal via Promega ADP-Glo kinase activity assay. Assay was validated using published PI3Kα inhibitors LY294002, PI-103, BYL719, GDC0198 and also DMSO vehicle control.
Compounds were prepared at 100× final concentration as a 12-point, 1:3 serial-dilution in DMSO series, with DMSO control as 12th point. Compound was then diluted in (25 mM HEPES pH 7.5, 1 mM EGTA, 0.3% CHAPS) prior to addition to PI3Kα. Active PI3Kα diluted to 0.24 ng/μL (1.1 nM) in (50 mM HEPES pH 7.5, 6 mM MgCl2, 1 mM EGTA, 200 mM NaCl, 0.03% CHAPS, 8 mM DTT) was incubated with compound for 0 hr and 3 hr prior to the start of the reaction. 25 μM PIP2:PS and 60 μM ATP were diluted from stock in (25 mM HEPES pH 7.5, 1 mM EGTA, 0.3% CHAPS) and added to initiate the PI3Kα reaction. Reaction time was 30 minutes. ATP to ADP conversion was measured in Luminescence Counts on DTX880 Plate Reader (Beckman Coulter). Compound IC50s were reported using GraphPad Prism software. Analytical method was non-linear regression, 4-parameter curve fit with bottom fit to validated PI3Kα inhibitor reference controls and no top fit (floating top).

Sequence of PI3Kα (P42336 whole entry): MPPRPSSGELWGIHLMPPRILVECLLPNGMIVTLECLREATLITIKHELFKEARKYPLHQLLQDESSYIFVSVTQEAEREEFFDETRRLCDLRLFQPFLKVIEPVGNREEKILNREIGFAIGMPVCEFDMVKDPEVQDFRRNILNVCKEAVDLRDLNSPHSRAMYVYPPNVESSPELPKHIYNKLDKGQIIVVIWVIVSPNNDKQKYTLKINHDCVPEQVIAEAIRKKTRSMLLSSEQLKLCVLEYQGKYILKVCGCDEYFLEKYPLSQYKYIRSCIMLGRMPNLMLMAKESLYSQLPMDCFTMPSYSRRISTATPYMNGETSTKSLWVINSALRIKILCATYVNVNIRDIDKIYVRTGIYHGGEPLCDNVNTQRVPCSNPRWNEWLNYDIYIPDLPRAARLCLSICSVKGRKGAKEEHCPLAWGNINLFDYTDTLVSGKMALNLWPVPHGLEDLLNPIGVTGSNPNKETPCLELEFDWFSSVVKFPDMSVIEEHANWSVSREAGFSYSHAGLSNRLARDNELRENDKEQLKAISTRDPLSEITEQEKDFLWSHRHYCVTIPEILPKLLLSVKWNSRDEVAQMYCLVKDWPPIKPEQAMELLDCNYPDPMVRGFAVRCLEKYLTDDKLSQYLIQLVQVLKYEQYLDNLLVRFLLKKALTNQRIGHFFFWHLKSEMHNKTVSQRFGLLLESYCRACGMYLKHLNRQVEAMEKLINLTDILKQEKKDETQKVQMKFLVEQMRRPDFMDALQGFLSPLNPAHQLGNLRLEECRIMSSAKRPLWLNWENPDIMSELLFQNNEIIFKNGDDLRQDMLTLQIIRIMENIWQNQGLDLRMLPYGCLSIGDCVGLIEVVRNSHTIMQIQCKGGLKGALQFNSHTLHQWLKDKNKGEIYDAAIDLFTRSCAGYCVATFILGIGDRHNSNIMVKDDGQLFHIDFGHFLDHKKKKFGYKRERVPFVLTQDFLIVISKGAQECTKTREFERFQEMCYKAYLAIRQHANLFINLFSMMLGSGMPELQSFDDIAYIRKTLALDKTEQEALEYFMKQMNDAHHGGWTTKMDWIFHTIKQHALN
Sequence of PI3Kα (P27986 whole entry partner): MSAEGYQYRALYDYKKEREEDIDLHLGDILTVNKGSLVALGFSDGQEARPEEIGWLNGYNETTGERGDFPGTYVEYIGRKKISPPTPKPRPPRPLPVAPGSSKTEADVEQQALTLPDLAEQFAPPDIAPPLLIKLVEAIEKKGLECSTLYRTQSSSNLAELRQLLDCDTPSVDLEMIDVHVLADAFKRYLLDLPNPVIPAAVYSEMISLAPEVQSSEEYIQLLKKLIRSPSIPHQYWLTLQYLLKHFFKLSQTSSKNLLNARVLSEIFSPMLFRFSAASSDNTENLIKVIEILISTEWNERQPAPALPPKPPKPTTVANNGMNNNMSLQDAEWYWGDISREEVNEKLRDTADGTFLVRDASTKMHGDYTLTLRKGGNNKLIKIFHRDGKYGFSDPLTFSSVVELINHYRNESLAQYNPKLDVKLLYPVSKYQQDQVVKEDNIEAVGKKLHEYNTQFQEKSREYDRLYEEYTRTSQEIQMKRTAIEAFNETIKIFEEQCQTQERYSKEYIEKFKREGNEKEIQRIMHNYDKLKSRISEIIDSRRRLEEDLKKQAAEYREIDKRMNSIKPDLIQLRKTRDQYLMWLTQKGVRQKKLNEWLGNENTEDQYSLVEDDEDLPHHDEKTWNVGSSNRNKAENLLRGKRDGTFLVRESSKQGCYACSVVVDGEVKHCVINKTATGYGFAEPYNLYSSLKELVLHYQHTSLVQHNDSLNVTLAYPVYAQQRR

IC50 [1]	PI3Ka IC50 (PI3Kα)	Compound
5810 nM	680 nM	O=S(=O)(c1cc(-c2cnc(NC3CC3)nc2)cc(N2CCOCC2)c1)C1CCOC1 (stereo not drawn) [Compound 103, N-cyclopropyl-5-(3-morpholino-5-((tetrahydrofuran-3-yl)sulfonyl)phenyl)pyrimidin-2-amine]
890 nM	120 nM	Nc1ncc(-c2cc(Cc3ccccc3)cc(N3CCOCC3)n2)cn1 [Compound 124, 5-(4-benzyl-6-morpholinopyridin-2-yl)pyrimidin-2-amine]
26400 nM	62 nM	NC(=O)N1CC(S(=O)(=O)c2cc(-c3cnc(N)nc3)cc(N3CCOCC3)c2)C1 [Compound 81, 3-((3-(2-aminopyrimidin-5-yl)-5-morpholinophenyl)sulfonyl)azetidine-1-carboxamide]
15300 nM	2400 nM	Nc1ncc(-c2cc(N3CCOCC3)cc(S(=O)(=O)c3c[nH]c4ccccc34)c2)cn1 [Compound 114, 5-(3-((1H-indol-3-yl)sulfonyl)-5-morpholinophenyl)pyrimidin-2-amine]
4520 nM	180 nM	Nc1ncc(-c2cc(N3CCOCC3)cc(S(=O)(=O)C3CN(C(=O)Cc4ccc(F)cc4)C3)c2)cn1 [Compound 78, 1-(3-((3-(2-aminopyrimidin-5-yl)-5-morpholinophenyl)sulfonyl)azetidin-1-yl)-2-(4-fluorophenyl)ethan-1-one]
1060 nM	1400 nM	Nc1ccc(-c2cc(N3CCOCC3)cc(S(=O)(=O)Cc3ccc(F)cc3F)c2)nn1 [Compound 96, 6-(3-((2,4-difluorobenzyl)sulfonyl)-5-morpholinophenyl)pyridazin-3-amine]
41300 nM		Nc1ncc(-c2cc(N3CCOCC3)cc(S(=O)(=O)Cc3ccc(N4CCOCC4)cc3)c2)cn1 [Compound 58, 5-(3-morpholino-5-((4-morpholinobenzyl)sulfonyl)phenyl) pyrimidin-2-amine]
	1500 nM	CNc1ncc(-c2cc(N3CCOCC3)cc(S(=O)(=O)c3ccccc3)c2)cn1 [Compound 16, N-methyl-5-(3-morpholino-5-(phenylsulfonyl)phenyl)pyrimidin-2-amine]
	370 nM	O=S(=O)(c1ccccc1)c1cc(-c2cnc(NC3CC3)nc2)nc(N2CCOCC2)c1 [Compound 146, N-cyclopropyl-5-(6-morpholino-4-(phenylsulfonyl)pyridin-2-yl)pyrimidin-2-amine]
	12000 nM	COc1ccc(-c2cc(N3CCOCC3)cc(S(=O)(=O)c3ccccc3)c2)cn1 [Compound 5, 4-(3-(6-methoxypyridin-3-yl)-5-(phenylsulfonyl)phenyl)morpholine]
	980 nM	Nc1ncc(-c2cc(N3CCOCC3)cc(S(=O)(=O)Cc3ccccc3)c2)c(C(F)(F)F)n1 [Compound 33, 5-(3-(benzylsulfonyl)-5-morpholinophenyl)-4-(trifluoromethyl)pyrimidin-2-amine]
	62 nM	Nc1ncc(-c2cc(C3CCOc4ccccc43)cc(N3CCOCC3)n2)cn1 (stereo not drawn) [Compound 141, 5-(4-(chroman-4-yl)-6-morpholinopyridin-2-yl)pyrimidin-2-amine]
	660 nM	CNc1ncc(-c2cc(N3CCOCC3)cc(S(=O)(=O)Cc3ccccc3)c2)cn1 [Compound 31, 5-(3-(benzylsulfonyl)-5-morpholinophenyl)-N-methylpyrimidin-2-amine]
	13 nM	Nc1ncc(-c2cc(S(=O)(=O)C3CCOCC3)cc(N3CCOCC3)n2)cn1 [Compound 148, 5-(6-morpholino-4-((tetrahydro-2H-pyran-4-yl)sulfonyl)pyridin-2-yl)pyrimidin-2-amine]
	1800 nM	Nc1ncc(-c2cc(N3CCOCC3)cc(S(=O)(=O)c3cccc(C(F)(F)F)c3)c2)cn1 [Compound 7, 5-(3-morpholino-5-((3-(trifluoromethyl)phenyl)sulfonyl)phenyl) pyrimidin-2-amine]
